Tests used:
[1] = Transportability through the blood-brain barrier (brain Kp) in mice; assay type: in vivo; conditions: male, Jcl;C57BL/6J, mouse, brain (relative to plasma), intravenous administration, without cyclosporin A, read-out: brain Kp value (KpCont.), blood-brain partition coefficient
Experimental: (§1) Transportability of the compounds of the present invention through the blood-brain barrier (blood-brain partition coefficient; Kp) in mice (Jcl;C57BL/6J mice, ♂, 7 weeks) was defined from the difference in concentration of the compounds between in plasma and in brain after intravenous administration of the compounds (0.5 mg/2 mIAg). The brain Kp value of Compound (1-72) (KpCont.) was 1.29 showing high transportability through the blood-brain barrier.

P-gp [2] = target: T1, P-gp (Mus musculus, UniProt P21447); experiment: Potential for drug-drug interactions through P-gp in vivo (Kp with or without cyclosporin A); conditions: mice, with versus without cyclosporin A (20 mg/kg)
T1 construct: effectively excreted through P-gp from the brain to vessels; from tissue; host or cells: brain / blood-brain barrier of living Jcl;C57BL/6J mice
Experimental: as §1
(§2) To examine the potential for drug-drug interactions through P-gp in vivo, the Kp values of compounds of the present invention with (KpCSA) or without (KpCont.) cyclosporin A (20 mg/kg), a P-gp inhibitor, were calculated. The KpCSA value of Compound (I-72) was 1.14, and the calculated KpCSA/KpCont. ratio was 0.9.
(§3) On the other hand the potential for drug-drug interactions through P-pg of amide compound B which has similar structure of Compound (I-72) was also examined in mice. The KpCont. and KpCSA were 0.04 and 0.84, respectively.

P-gp [3] = system: T2, P-gp; experiment: as above; conditions: male, Jcl;C57BL/6J, mouse, brain (relative to plasma); mice, intravenous administration, with cyclosporin A (20 mg/kg), a P-gp inhibitor; read-out: KpCSA value
T2 construct: effectively excreted through P-gp from the brain to vessels; from tissue; host or cells: brain / blood-brain barrier of living Jcl;C57BL/6J mice
Experimental: as §1, §2, §3

human NPY Y5 receptor = target: T3, human NPY Y5 receptor (Homo sapiens, UniProt Q15761); experiment: Affinity for NPY Y5 receptor ([125I] peptide YY binding, CHO cell membranes); conditions: [125I] peptide YY 60 pM, 25° C., 2 hours
T3 construct: expressed in transfected cells; membranes used
T3 sequence (Q15761 1-445): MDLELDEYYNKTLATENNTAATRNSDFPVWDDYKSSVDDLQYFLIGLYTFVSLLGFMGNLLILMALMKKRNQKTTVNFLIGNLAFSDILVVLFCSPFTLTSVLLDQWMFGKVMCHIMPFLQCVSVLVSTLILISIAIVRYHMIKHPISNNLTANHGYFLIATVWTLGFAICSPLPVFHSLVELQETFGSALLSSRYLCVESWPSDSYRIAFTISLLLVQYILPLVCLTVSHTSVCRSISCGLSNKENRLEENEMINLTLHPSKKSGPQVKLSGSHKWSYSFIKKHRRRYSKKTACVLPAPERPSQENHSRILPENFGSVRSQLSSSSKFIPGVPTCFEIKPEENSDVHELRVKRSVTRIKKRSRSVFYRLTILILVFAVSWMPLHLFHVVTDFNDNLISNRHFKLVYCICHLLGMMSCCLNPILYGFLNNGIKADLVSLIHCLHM
Source text: cDNA sequence encoding a human NPY Y5 receptor (WO96/16542) was cloned in a vector (pME18S, Takebe et al. Mol. Cell. Biol. 8, 8957). The obtained expression vector was transfected into CHO cells as a host by using Lipofect AMINE reagent (Trademark, Gico BRL Co., Ltd.) according to the instruction manual. The cells that stably express NPY Y5 receptor were obtained.
The membranes prepared from the CHO cells expressing NPY Y5 receptor, the compound of the present invention and 30,000 cpm [^125I] peptide YY (60 pM of final concentration: Amersham) were incubated in the assay buffer (20 mM HEPES-Hanks buffer containing 0.1% bovine serum albumin, pH 7.4) at 25° C. for 2 hours, and then the membrane was filtered from the mixture through a glassfilter (GF/C) presoaked with 1% polyethyleneimine. After washing with 50 mM Tris-HCl buffer (pH 7.4), radioactivity retained on the filters was quantified with a gamma counter. Nonspecific binding was defined as the amount of radioactivity bound to the membranes after incubation in the presence of 200 nM of peptide YY. The 50% inhibitory concentration of the test compound against the specific peptide YY binding (IC50 value) was calculated (Inui, A. et al. Endocrinology 131, 2090-2096 (1992)).

T1 sequence (P21447 whole entry): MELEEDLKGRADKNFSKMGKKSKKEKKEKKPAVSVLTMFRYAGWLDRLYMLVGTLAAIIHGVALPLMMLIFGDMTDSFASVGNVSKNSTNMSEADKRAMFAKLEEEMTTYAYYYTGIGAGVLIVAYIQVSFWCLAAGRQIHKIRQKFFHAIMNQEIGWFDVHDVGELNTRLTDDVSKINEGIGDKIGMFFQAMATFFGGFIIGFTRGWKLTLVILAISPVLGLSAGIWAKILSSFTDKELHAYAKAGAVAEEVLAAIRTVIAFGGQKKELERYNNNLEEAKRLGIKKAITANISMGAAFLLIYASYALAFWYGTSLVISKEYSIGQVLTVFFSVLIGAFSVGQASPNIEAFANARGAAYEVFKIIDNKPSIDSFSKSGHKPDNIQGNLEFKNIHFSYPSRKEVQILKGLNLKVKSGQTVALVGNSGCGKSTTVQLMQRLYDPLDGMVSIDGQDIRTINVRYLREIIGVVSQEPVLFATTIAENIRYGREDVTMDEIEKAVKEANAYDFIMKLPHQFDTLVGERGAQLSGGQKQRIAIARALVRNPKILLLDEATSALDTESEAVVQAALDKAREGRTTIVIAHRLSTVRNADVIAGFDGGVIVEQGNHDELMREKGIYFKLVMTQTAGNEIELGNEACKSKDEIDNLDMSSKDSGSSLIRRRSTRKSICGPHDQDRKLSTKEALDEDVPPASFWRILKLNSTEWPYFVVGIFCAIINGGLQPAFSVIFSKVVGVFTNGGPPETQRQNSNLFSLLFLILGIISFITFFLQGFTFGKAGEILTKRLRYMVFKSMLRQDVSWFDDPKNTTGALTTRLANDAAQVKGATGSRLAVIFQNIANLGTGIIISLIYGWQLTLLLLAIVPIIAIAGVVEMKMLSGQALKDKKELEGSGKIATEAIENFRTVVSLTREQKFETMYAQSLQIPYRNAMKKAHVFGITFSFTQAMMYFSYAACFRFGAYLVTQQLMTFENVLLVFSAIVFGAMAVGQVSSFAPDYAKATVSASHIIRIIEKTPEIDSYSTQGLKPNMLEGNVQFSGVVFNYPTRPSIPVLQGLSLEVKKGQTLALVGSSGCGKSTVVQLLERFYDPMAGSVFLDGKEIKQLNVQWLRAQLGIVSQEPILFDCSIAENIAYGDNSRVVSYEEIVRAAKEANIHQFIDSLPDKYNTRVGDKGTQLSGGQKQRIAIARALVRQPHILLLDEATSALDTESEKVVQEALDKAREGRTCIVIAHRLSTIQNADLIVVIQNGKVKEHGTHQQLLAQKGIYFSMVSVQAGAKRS

Molecule `C[C@@H]1CN(c2ccc(NC[C@H]3CC[C@H](NS(=O)(=O)C(C)(C)C)CC3)cc2)C[C@H](C)O1` [Compound I-72] has a melting point of 147 to 149 °C, a Kp [1] of 1.29 and a KpCSA/KpCont. ratio (P-gp [2]) of 0.9. For the same molecule, the Kp (P-gp [3]) was 1.14.
In the case of `CC1CC(C)CN(c2cccc(NC[C@H]3CC[C@H](NS(=O)(=O)C(C)(C)C)CC3)c2)C1` (stereo partly drawn) [Ii-1], the IC50 (human NPY Y5 receptor) is reported as 0.1 nM.
Molecule `CCCn1c(=O)oc2cc(NC[C@H]3CC[C@H](NS(=O)(=O)CC)CC3)ccc21` [Ii-16] has an IC50 (human NPY Y5 receptor) of 2.5 nM.
`CCS(=O)(=O)N[C@H]1CC[C@H](CNc2ccc(S(=O)(=O)c3ccc(F)cc3)cc2)CC1` [Ii-34] showed an IC50 (human NPY Y5 receptor) of 11 nM.
`CCS(=O)(=O)N[C@H]1CC[C@H](CNc2cc(-c3ccccc3)on2)CC1` [Ii-44] gave an IC50 (human NPY Y5 receptor) of 3.4 nM.
With `CC(C)S(=O)(=O)NC[C@H]1CC[C@H](Nc2ccc(C(F)(F)F)cn2)CC1` [Ij-1] the IC50 (human NPY Y5 receptor) was 0.7 nM.
For `CC(C)S(=O)(=O)NC[C@H]1CC[C@H](Nc2ccc(OC3CCCC3)nn2)CC1` [Ij-52], the IC50 (human NPY Y5 receptor) was 0.27 nM.
Work on `CC(C)(C)S(=O)(=O)NC[C@H]1CC[C@H](Nc2ccc3ccccc3n2)CC1` [Ij-59] yielded an IC50 (human NPY Y5 receptor) of 2.5 nM.
For `CC(C)(C)S(=O)(=O)NC[C@H]1CC[C@H](Nc2nc3ccc(C(F)(F)F)cc3s2)CC1` [Ij-66], the IC50 (human NPY Y5 receptor) was 0.39 nM.
In the case of `C[C@@H]1CN(c2ccc(NC(=O)[C@H]3CC[C@H](NS(=O)(=O)C(C)(C)C)CC3)cc2)C[C@H](C)O1` [compound B, reference compound], the Kp [1] is reported as 0.04, the KpCSA/KpCont. ratio (P-gp [2]) is reported as 20.5 and the Kp (P-gp [3]) is reported as 0.84.
